Common to all, as to assay: MIC against clinical Mtb strains
Holding throughout (assay type): cell-based
Holding throughout (details): Mycobacterium tuberculosis

Assay [1] deals with MDR-TB resistant to HREKP.
Assay [2] deals with MDR-TB resistant to HRERb.
Assay [3] concerns MDR-TB resistant to HREZSKP.
Assay [4] deals with XDR-TB resistant to HREKO.
For assay [5], the system named is XDR-TB resistant to HRESKO.

“And” between values parts separate entries of the source, which are not always exact repeats. Equal entries are not always repeated.

In general, MIC90 refers to an inhibitory concentration at the 90% level, which refers to growth in some studies and to a panel of isolates in others. High values mean weaker potency, low ones greater potency. For `Cc1cn2c(C(=O)NCc3ccc(Oc4ccc(F)cc4)cc3)c(C)nc2s1` [ND-010081], the MIC90 in assay [1] was < 0.01 µM and < 0.025 µg/mL; in assay [2], 0.63 µM and 1.6 µg/mL; in assay [3], 0.02 µM to 10 µM and 0.05 µg/mL to 25 µg/mL; in assay [4] it was < 0.01 µM and < 0.025 µg/mL; in assay [5] it was < 0.01 µM and < 0.025 µg/mL.

With `O=[N+]([O-])c1cn2c(n1)OC[C@@H](OCc1ccc(OC(F)(F)F)cc1)C2` [PA-824, reference compound], the MIC90 in assay [1] was 0.45 µM to 0.86 µM and 0.16 µg/mL to 0.31 µg/mL; in assay [2], 0.45 µM to 0.86 µM and 0.16 µg/mL to 0.31 µg/mL; in assay [3], 0.45 µM to 0.86 µM and 0.16 µg/mL to 0.31 µg/mL; in assay [4] it was 0.22 µM and 0.08 µg/mL; in assay [5], 0.86 µM and 0.31 µg/mL.

For the origin of these results see patent US9605002B2, “5,5-heteroaromatic anti-infective compounds” (priority 2012, dated 2017).
